Read-outs that look alike come from different tables or passages of the source.
Assays:
hSERT = biological target: T1, hSERT (Homo sapiens, UniProt P31645); assay: SERT radioligand binding assay
T1 construct: expressed in transfected cells; host or cells: HEK-293 cells (crude membranes)
Experimental: (§1) NK-1 Binding assay. Crude membrane suspensions were prepared for the NK1 and SERT radioligand binding assays from U373 cells or recombinant HEK-293 cells expressing hSERT, respectively. […] The medium is removed from the flasks and the cells rinsed with HBSS without Ca and without Mg. The cells are then incubated for 5-10 minutes in 10 mM Tris-Cl, pH 7.5, 5 mM EDTA before the cells are lifted with a combination of pipetting and scraping, as needed. To prepare membranes, the cell suspension is collected into centrifuge bottles and homogenized for 30 seconds with a Polytron homogenizer. The suspension is centrifuged for 30 min 32,000×g, 4° C., then the supernatant is decanted and the pellet resuspended and homogenized in 50 mM Tris-Cl, pH 7.5, 1 mM EDTA for 10 seconds. The suspension is then centrifuged again for 30 min 32,000×g, 4° C. The supernatant is decanted and the pellet resuspended in 50 mM Tris-Cl, pH 7.5, 1 mM EDTA and briefly homogenized. A Bradford assay (Bio-rad) is performed and the membrane preparation diluted to 2 mg/ml with 50 mM Tris-Cl, pH 7.5, 1 mM EDTA. Aliquots are prepared, and then frozen and stored at −80° C.
(§2) SERT radioligand binding assay. Compounds are dissolved in 100% DMSO at a concentration 100× the desired highest assay concentration, serially diluted 1:3 in 100% DMSO, and 0.4 ul/well of each solution is dispensed to a Nunc polypropylene, round bottom, 384 well plate. […] The contents of the assay plate are then transferred to a Millipore MultiscreenHTS GF/B filter plate which has been pretreated with 0.5% PEI for at least one hour. The plate is vacuum filtered and washed with 7 washes of 100 ul/well of 50 mM Tris-Cl, pH 7.5, 120 mM NaCl, 5 mM KCl chilled to 4° C. The filtration and washing is completed in less than 90 s. The plates are air-dried overnight, 12 ul/well of MicroScint scintillation fluid added, and the plates counted in a Trilux.
(§3) Data analysis. […] Each plate is run in triplicate, and the concentration response curve thus generated is fit using the four-parameter dose response equation, Y=Bottom+(Top-Bottom)/(1+10^((Log IC50−X)*HillSlope)) in order to determine the IC50 value for each compound. The radioligand concentration chosen for each assay corresponds to the Kd concentration determined through saturation binding analysis for each assay.

NK-1 = biological target: T2, NK-1 (Homo sapiens, UniProt P25103); assay: NK1 radioligand binding assay; conditions: U373 membrane preparation, [125I]Substance P
T2 construct: endogenous in cells; host or cells: U373 cells (crude membranes)
Experimental: as §1
as §2, with “NK1” for “SERT”, “0.6” for “0.4”, “20” for “50”, “0.5% (w/v) BSA” for “120 mM NaCl, 5 mM KCl”
as §3

[1] = HEK-hSERT membrane preparation, [125I]RTI-55, read-out: SERT IC50

T1 sequence (P31645 whole entry): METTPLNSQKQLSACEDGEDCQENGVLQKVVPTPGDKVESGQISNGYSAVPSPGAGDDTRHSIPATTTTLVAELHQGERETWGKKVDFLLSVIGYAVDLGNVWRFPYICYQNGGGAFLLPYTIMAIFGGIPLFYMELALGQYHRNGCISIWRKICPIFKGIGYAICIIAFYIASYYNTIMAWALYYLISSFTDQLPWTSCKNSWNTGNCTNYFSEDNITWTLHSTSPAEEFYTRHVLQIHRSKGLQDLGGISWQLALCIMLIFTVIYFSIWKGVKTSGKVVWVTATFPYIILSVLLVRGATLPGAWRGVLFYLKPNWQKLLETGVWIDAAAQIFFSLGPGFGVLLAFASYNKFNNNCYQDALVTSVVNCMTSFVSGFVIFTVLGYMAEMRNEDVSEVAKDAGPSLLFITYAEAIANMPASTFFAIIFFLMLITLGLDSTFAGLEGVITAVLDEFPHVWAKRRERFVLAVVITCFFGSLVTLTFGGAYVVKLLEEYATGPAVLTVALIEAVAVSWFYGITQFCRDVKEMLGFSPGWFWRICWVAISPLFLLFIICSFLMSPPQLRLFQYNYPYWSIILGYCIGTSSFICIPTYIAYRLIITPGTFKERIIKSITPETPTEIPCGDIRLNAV
T2 sequence (P25103 whole entry): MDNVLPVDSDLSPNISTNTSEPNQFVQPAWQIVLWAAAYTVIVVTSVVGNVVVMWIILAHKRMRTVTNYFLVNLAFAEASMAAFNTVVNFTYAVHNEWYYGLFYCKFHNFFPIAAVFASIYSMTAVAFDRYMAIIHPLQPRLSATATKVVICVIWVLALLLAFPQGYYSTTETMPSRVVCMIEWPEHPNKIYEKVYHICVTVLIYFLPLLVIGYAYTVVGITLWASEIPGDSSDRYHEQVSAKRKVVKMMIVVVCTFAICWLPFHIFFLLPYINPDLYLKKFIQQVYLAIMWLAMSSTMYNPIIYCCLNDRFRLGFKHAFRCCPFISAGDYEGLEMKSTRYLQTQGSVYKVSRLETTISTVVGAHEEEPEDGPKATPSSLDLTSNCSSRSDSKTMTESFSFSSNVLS

| Compound | IC50 (hSERT) [nM] | IC50 (NK-1) [nM] | IC50 (hSERT; [1]) [nM] |
| --- | --- | --- | --- |
| C[C@@H]1CCCN1c1cc(C(F)(F)F)cc(COCC2(c3ccc(F)cc3)CCN(C)CC2)n1 [Example 94] | 0.01 to 100 | 0.01 to 100 | – |
| CN1CCC(COCc2cc(C(F)(F)F)cc(N3CCCC3)n2)(c2ccc(F)cc2)CC1 [Example 59] | – | 0.01 to 100 | 0.01 to 100 |
| N#Cc1ccc(-c2cncc(COCC3(c4ccccc4)CCNCC3)c2)cc1 [Example 25, 4-(5-(((4-phenylpiperidin-4-yl)methoxy)methyl)pyridine-3yl)benzonitrile] | – | > 300 | 0.01 to 100 |
| CN1CCC(COCc2cc(C(F)(F)F)cc(N3CC[C@@H](F)C3)n2)(c2ccc(F)cc2)CC1 [Example 92] | 0.01 to 100 | 0.01 to 100 | – |
| COc1ccc(-c2cc(C(F)(F)F)cc(COCC3(c4ccccc4)CCN(C)CC3)n2)cc1 [Example 38, 2-(4-methoxyphenyl)-6-(((1-methyl-4-phenylpiperidin-4-yl)methoxy)methyl)-4-(trifluoromethyl)pyridine] | 0.01 to 100 | 0.01 to 100 | – |
| CN1CCC(COCc2cc(C(F)(F)F)cc(-c3ccc(C#N)cc3)n2)(c2cccc(C(F)(F)F)c2)CC1 [Example 83] | 100 to 300 | 0.01 to 100 | – |
| FC(F)(F)c1cc(COCC2(c3ccccc3)CCNCC2)nc(N2CCOCC2)c1 [Example 15] | – | 0.01 to 100 | 100 to 300 |
| CN1CCC(COCc2cc(C(F)(F)F)cc(Cl)n2)(c2cccnc2)CC1 [Example 35, 2-chloro-6-(((1-methyl-4-(pyridin-3-yl)piperidin-4-yl)methoxy)methyl)-4-(trifluoromethyl)pyridine] | 0.01 to 100 | > 300 | – |
| CN1CCC(COCc2cc(C(F)(F)F)cc(-c3ccc(C#N)cc3)n2)(c2ccccc2)CC1 [Example 41] | 0.01 to 100 | 0.01 to 100 | – |
| CCC(CC)Nc1cc(C(F)(F)F)cc(COCC2(c3ccc(F)cc3)CCNCC2)n1 [Example 21] | – | 0.01 to 100 | 0.01 to 100 |
| CN1CCC(COCc2cncc(-c3ccco3)c2)(c2ccccc2)CC1 [Example 49] | 0.01 to 100 | > 300 | – |
| N#Cc1ccc(-c2cc(C(F)(F)F)cc(COCC3(c4ccccc4)CCNCC3)n2)cc1 [Example 6] | – | 0.01 to 100 | 0.01 to 100 |
| CN1CCC(COCc2cc(C(F)(F)F)cc(N3CCC(F)(F)C3)n2)(c2ccc(F)cc2)CC1 [Example 89] | 0.01 to 100 | 0.01 to 100 | – |
| CN1CCC(COCc2cc(C(F)(F)F)cc(-c3ccc(F)cc3F)n2)(c2ccc(F)cc2)CC1 [Example 62] | 0.01 to 100 | 0.01 to 100 | – |
| COc1ccc(-c2cc(C(F)(F)F)cc(COCC3(c4ccc(F)cc4)CCN(C)CC3)n2)cc1F [Example 75] | 0.01 to 100 | 0.01 to 100 | – |
| CN1CCC(COCc2cc(C(F)(F)F)cc(-c3ccc(C#N)cc3)n2)(c2cccc(F)c2)CC1 [Example 85] | 0.01 to 100 | 0.01 to 100 | – |
| c1ccc(C2(COCc3cncc(-c4ccco4)c3)CCNCC2)cc1 [Example 9] | – | > 300 | 0.01 to 100 |
| FC(F)(F)c1ccc(-c2cc(C(F)(F)F)cc(COCC3(c4ccccc4)CCNCC3)n2)cc1 [Example 3] | – | > 300 | 100 to 300 |
| CC(OCC1(c2ccc(F)cc2)CCN(C)CC1)c1cc(C(F)(F)F)cc(N2CC[C@@H](F)C2)n1 (some centres unmarked) [Example 87] | – | 0.01 to 100 | 0.01 to 100 |
| CN1CCC(COCc2cc(C(F)(F)F)cc(-c3ccc(C#N)cc3)n2)(c2ccc(C#N)cc2)CC1 [Example 84] | 0.01 to 100 | 0.01 to 100 | – |
| COC(=O)c1ccc(-c2cc(C(F)(F)F)cc(COCC3(c4ccc(F)cc4)CCN(C)CC3)n2)c(F)c1 [Example 63] | 0.01 to 100 | 0.01 to 100 | – |
| CN1CCC(COCc2cc(C(F)(F)F)cc(-c3ncon3)n2)(c2ccc(F)cc2)CC1 [Example 37, 3-(6-(((4-(4-fluorophenyl)-1-methylpiperidin-4-yl)methoxy)methyl)-4-(trifluoromethyl)pyridin-2-yl)-1,2,4-oxadiazole] | 0.01 to 100 | 100 to 300 | – |
| Cc1cc(C(F)(F)F)cc(COCC2(c3ccc(F)cc3)CCN(C)CC2)n1 [Example 36, 2-(((4-(4-fluorophenyl)-1-methylpiperidin-4-yl)methoxy)methyl)-6-methyl-4-(trifluoromethyl)pyridine] | 0.01 to 100 | 0.01 to 100 | – |
| Fc1ccc(C2(COCc3cc(C(F)(F)F)cc(N4CCCC4)n3)CCNCC2)cc1 [Example 20] | – | 0.01 to 100 | 0.01 to 100 |
| N#CC1CCN(c2cc(C(F)(F)F)cc(COCC3(c4ccc(F)cc4)CCNCC3)n2)C1 (centres unmarked) [Example 18] | – | 0.01 to 100 | 0.01 to 100 |
| Cc1cc(-c2cc(C(F)(F)F)cc(COCC3(c4ccccc4)CCN(C)CC3)n2)ccc1C#N [Example 60] | 0.01 to 100 | 0.01 to 100 | – |
| Cc1cc(-c2cc(C(F)(F)F)cc(COCC3(c4ccc(F)cc4)CCN(C)CC3)n2)ccc1C#N [Example 61] | 0.01 to 100 | 0.01 to 100 | – |
| CN1CCC(COCc2cc(C(F)(F)F)cc(-c3ccc(C#N)cc3)n2)(c2cccnc2)CC1 [Example 98] | 0.01 to 100 | 0.01 to 100 | – |
